The text below walks through data of PubChem BioAssay (NCI).

Among the test systems are UACC-62 melanoma; SNB-19 CNS; HCT-116 colon; HL-60(TB) leukemia; NCI-H226 lung; OVCAR-8 ovarian; SF-268 CNS; CCRF-CEM leukemia.
Common to all, as to assay: growth of human tumour cells (NCI), 48 h

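Values below derive from 48-hour exposures of cells grown in 96-well plates, with endpoints linearly interpolated between the two concentrations bracketing the appropriate inhibition level. Abbreviation: GI50, concentration required for 50% inhibition of growth. Definition used: TGI = concentration required for complete inhibition of growth.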

Turning to `Cc1ccc(S(=O)(=O)Oc2ccc3c4c(c(=O)oc3c2)CCCCCC4)cc1`, the GI50 was more than 100 µM in the assay on UACC-62 melanoma; more than 100 µM in the assay with SNB-19 CNS; 8.04 µM in the assay with HCT-116 colon; 7.17 µM with HL-60(TB) leukemia; 8.31 µM in the assay on NCI-H226 lung; more than 100 µM in the assay with OVCAR-8 ovarian. In addition, the GI50 in the assay on SF-268 CNS is more than 100 µM; in the assay with CCRF-CEM leukemia, 8.92 µM. The TGI in the assay on UACC-62 melanoma, in the assay with SNB-19 CNS, with HCT-116 colon, with HL-60(TB) leukemia, with NCI-H226 lung and with OVCAR-8 ovarian was more than 100 µM in each case. Moreover, the TGI with SF-268 CNS and in the assay on CCRF-CEM leukemia was more than 100 µM in each case.

In the case of `COc1c(C(C)=O)c(OCCCCOc2c(C(C)=O)c(OC)c3ccoc3c2OC)c(OC)c2occc12`, the GI50 was 2.13 µM with UACC-62 melanoma; more than 28.9 µM with SNB-19 CNS; 3.71 µM in the assay on HCT-116 colon; 1.85 µM in the assay on HL-60(TB) leukemia; 2.27 µM in the assay with OVCAR-8 ovarian; more than 42.1 µM in the assay on SF-268 CNS. Also, the TGI with UACC-62 melanoma was more than 100 µM; in the assay with SNB-19 CNS, more than 100 µM; in the assay with HCT-116 colon, more than 100 µM; in the assay on HL-60(TB) leukemia, 4.02 µM; in the assay on NCI-H226 lung, more than 100 µM; in the assay on OVCAR-8 ovarian, 7.85 µM. In the assay with SF-268 CNS, this molecule registered a TGI of more than 100 µM.

On to `CN(C)c1ccc(Nc2c3ccccc3nc3ccccc23)cc1`, for which the GI50 in the assay on UACC-62 melanoma was 1.19 µM; in the assay with SNB-19 CNS it was 1.63 µM; with HCT-116 colon it was 0.38 µM; in the assay with HL-60(TB) leukemia it was 0.84 µM; with NCI-H226 lung, 1.04 µM; in the assay on OVCAR-8 ovarian it was 0.868 µM. Moreover, the GI50 was 1.52 µM with SF-268 CNS and 1.23 µM with CCRF-CEM leukemia. The TGI in the assay with UACC-62 melanoma was determined as 2.98 µM; in the assay on SNB-19 CNS, 9.32 µM; in the assay with HCT-116 colon, 1.7 µM; with HL-60(TB) leukemia, 3.61 µM; in the assay on NCI-H226 lung, 2.68 µM; with OVCAR-8 ovarian, 3.25 µM. Also, the TGI in the assay on SF-268 CNS was found to be 7.83 µM; in the assay with CCRF-CEM leukemia, 15.7 µM.

In the case of `[2H]C([2H])([2H])NC(=O)c1nnc(NC(=O)C2CC2)cc1Nc1cccc(-c2ncn(C)n2)c1OC`, the GI50 was 91.6 µM in the assay on UACC-62 melanoma; more than 100 µM in the assay with SNB-19 CNS; 9.79 µM in the assay with HCT-116 colon; 14 µM in the assay with HL-60(TB) leukemia; more than 100 µM in the assay with NCI-H226 lung; 27.4 µM with OVCAR-8 ovarian. Moreover, the GI50 in the assay with SF-268 CNS is 45.7 µM; in the assay on CCRF-CEM leukemia, 19.8 µM. The TGI with UACC-62 melanoma was more than 100 µM; in the assay with SNB-19 CNS it was more than 100 µM; in the assay on HCT-116 colon, more than 100 µM; in the assay with HL-60(TB) leukemia it was 82.6 µM; in the assay with NCI-H226 lung, more than 100 µM; with OVCAR-8 ovarian it was more than 100 µM. Also, the TGI in the assay with SF-268 CNS and with CCRF-CEM leukemia was more than 100 µM throughout.

Regarding `CCCCC(SC(=S)N1CCCC1)C(=O)Nc1nc(CC(=O)OCC)cs1` (centres undefined), the GI50 in the assay on UACC-62 melanoma was 76.4 µM; with SNB-19 CNS, 65.1 µM; with HCT-116 colon, 28.9 µM; in the assay on HL-60(TB) leukemia, 25 µM; in the assay on NCI-H226 lung, 71 µM; with OVCAR-8 ovarian, 40.1 µM. Moreover, the GI50 in the assay with SF-268 CNS is 37.5 µM. The TGI in the assay on UACC-62 melanoma, with SNB-19 CNS, in the assay with HCT-116 colon, in the assay with HL-60(TB) leukemia, with NCI-H226 lung and with OVCAR-8 ovarian was more than 100 µM each time. This molecule registered a TGI with SF-268 CNS of more than 100 µM.

As for `O=[N+]([O-])c1ccc(NN=C2CN3CCN(C2)c2ccccc23)c([N+](=O)[O-])c1`, the TGI in the assay on UACC-62 melanoma, in the assay on SNB-19 CNS, with HCT-116 colon, in the assay with OVCAR-8 ovarian, in the assay with SF-268 CNS and with CCRF-CEM leukemia was more than 100 µM throughout.

Consider `CC(C)(C)C1CCC2c3c([nH]c4ccccc34)C3C(=O)N(c4ccc(C#N)cc4)C(=O)C3C2C1` (centres undefined), for which the TGI is more than 100 µM in the assay with SNB-19 CNS; 18 µM in the assay on HCT-116 colon; 15 µM in the assay with HL-60(TB) leukemia; 42.1 µM in the assay with NCI-H226 lung; 45.6 µM in the assay on OVCAR-8 ovarian; 29.3 µM with SF-268 CNS.

As to `C=C(C)[C@@H]1CCC=C2CC[C@]3(C)[C@H](CC[C@@H]4[C@@]5(C)CCCNC(C)(C)[C@@H]5CC[C@]43C)[C@H]21`, the GI50 with UACC-62 melanoma is 1.92 µM; in the assay on HCT-116 colon, 1.79 µM; in the assay on HL-60(TB) leukemia, 1.58 µM; in the assay with NCI-H226 lung, 2.8 µM; in the assay on SF-268 CNS, 2.77 µM; in the assay with CCRF-CEM leukemia, 2.48 µM. Also, the TGI was found to be 3.84 µM in the assay with UACC-62 melanoma; 3.2 µM in the assay with HCT-116 colon; 3.57 µM with HL-60(TB) leukemia; 9.14 µM in the assay with NCI-H226 lung; 8.53 µM in the assay on SF-268 CNS; 7.21 µM in the assay on CCRF-CEM leukemia.

`C(/C=N/NC1=NCCCCN1)=N\NC1=NCCCCN1`: the TGI with UACC-62 melanoma, with SNB-19 CNS, in the assay with HCT-116 colon, with NCI-H226 lung, in the assay on OVCAR-8 ovarian and with SF-268 CNS was more than 100 µM throughout. In addition, the TGI in the assay with CCRF-CEM leukemia is more than 100 µM.

Regarding `CCCn1c2c(c3c(O)cccc31)C(=O)c1ccccc1-2`, the GI50 in the assay with UACC-62 melanoma was 15.2 µM; in the assay on SNB-19 CNS, 25.5 µM; in the assay with HCT-116 colon, 29.2 µM; in the assay with NCI-H226 lung, 28.3 µM; in the assay with OVCAR-8 ovarian it was 22.5 µM; with SF-268 CNS, 19.5 µM. Moreover, the GI50 with CCRF-CEM leukemia is more than 100 µM. The TGI was 69.3 µM with UACC-62 melanoma; more than 100 µM in the assay with SNB-19 CNS; more than 100 µM in the assay on HCT-116 colon; more than 100 µM in the assay on NCI-H226 lung; more than 100 µM in the assay on OVCAR-8 ovarian; more than 100 µM in the assay on SF-268 CNS. For the same molecule, the TGI with CCRF-CEM leukemia is more than 100 µM.

Regarding `C=C1C(=O)O[C@H]2[C@H]1CC/C(COC(=O)CCCCCC(=O)OC/C1=C/CC[C@@]3(C)O[C@H]3[C@H]3OC(=O)C(=C)[C@@H]3CC1)=C\CC[C@@]1(C)O[C@@H]21`, the GI50 in the assay on UACC-62 melanoma was 2.02 µM; in the assay on SNB-19 CNS it was 4.09 µM; with HL-60(TB) leukemia it was 0.694 µM; in the assay on NCI-H226 lung, 2.02 µM; in the assay with OVCAR-8 ovarian, 2.65 µM; with SF-268 CNS it was 3.44 µM. Besides, the GI50 with CCRF-CEM leukemia was 0.393 µM. Further, the TGI with UACC-62 melanoma is 4.92 µM; with SNB-19 CNS, 19.5 µM; in the assay with HL-60(TB) leukemia it was 3.66 µM; with NCI-H226 lung, 5.53 µM; with OVCAR-8 ovarian, 9.71 µM; in the assay with SF-268 CNS it was 14.8 µM. In the assay with CCRF-CEM leukemia, this molecule showed a TGI of 3.86 µM.

Take `O=C(O)C(Cc1cnc[nH]1)N1C(=O)c2ccccc2C1=O` (centres undefined): the TGI with UACC-62 melanoma, in the assay with SNB-19 CNS, in the assay with HCT-116 colon, in the assay with NCI-H226 lung, with OVCAR-8 ovarian and in the assay on SF-268 CNS was more than 100 µM each time.

With `CC1=CC2C(C(O)CC3(C)C2CC(C)C32OCOC23COCO3)C2(C)C/C(=C/O)C(=O)C=C12` (centres undefined), the GI50 in the assay on UACC-62 melanoma is 1.76 µM; in the assay on SNB-19 CNS, 3.22 µM; in the assay with HCT-116 colon it was 1.49 µM; with HL-60(TB) leukemia it was 2.1 µM; in the assay on OVCAR-8 ovarian it was 1.76 µM; in the assay on SF-268 CNS it was 2.03 µM. Besides, the GI50 in the assay with CCRF-CEM leukemia is 1.05 µM. In addition, the TGI in the assay with UACC-62 melanoma turned out to be 3.83 µM; in the assay with SNB-19 CNS, 12 µM; with HCT-116 colon, 2.97 µM; with HL-60(TB) leukemia it was 4.63 µM; with OVCAR-8 ovarian, 3.73 µM; in the assay with SF-268 CNS, 3.84 µM. For the same molecule, the TGI in the assay with CCRF-CEM leukemia stood at 3.61 µM.

Take `C#C[C@]1(O)CC[C@H]2[C@@H]3CC=C4c5sc(Nc6cc(F)ccc6F)nc5CC[C@]4(C)[C@H]3CC[C@@]21C`: the GI50 was 1.74 µM with UACC-62 melanoma; 1.6 µM in the assay on SNB-19 CNS; 2.54 µM with HL-60(TB) leukemia; 2.63 µM with OVCAR-8 ovarian; 1.53 µM in the assay on SF-268 CNS; 0.669 µM in the assay on CCRF-CEM leukemia. The TGI in the assay with UACC-62 melanoma was 3.75 µM; with SNB-19 CNS it was 3.23 µM; with HL-60(TB) leukemia, 7.96 µM; in the assay on OVCAR-8 ovarian, 12.1 µM; in the assay on SF-268 CNS, 3.37 µM; in the assay with CCRF-CEM leukemia, 4.81 µM.

Consider `COc1ccc2c(c1)/C(=C\c1ccncc1)C(=O)N2`, for which the GI50 in the assay with UACC-62 melanoma was 4.46 µM; with SNB-19 CNS it was 19.4 µM; with HCT-116 colon, 3.72 µM; in the assay on HL-60(TB) leukemia, 6.8 µM; in the assay with OVCAR-8 ovarian, 10.3 µM; in the assay on SF-268 CNS, 5.07 µM. Moreover, the GI50 in the assay on CCRF-CEM leukemia is 3.06 µM. The TGI in the assay with UACC-62 melanoma is 17.2 µM; with SNB-19 CNS, 61.1 µM; with HCT-116 colon, 17.8 µM; in the assay with HL-60(TB) leukemia it was more than 100 µM; in the assay on OVCAR-8 ovarian, 32.7 µM; in the assay with SF-268 CNS it was 37.3 µM. The TGI in the assay with CCRF-CEM leukemia was more than 100 µM.

Regarding `CNC(=O)NCC1OC(n2cnc3c(NC(=O)Nc4ccccc4)ncnc32)C(O[Si](C)(C)C(C)(C)C)C1O[Si](C)(C)C(C)(C)C` (centres undefined), the GI50 in the assay with UACC-62 melanoma was 3.98 µM; with SNB-19 CNS it was 4.57 µM; in the assay on HCT-116 colon, 2.11 µM; with NCI-H226 lung, 3.1 µM; in the assay with OVCAR-8 ovarian, 4.01 µM; in the assay on SF-268 CNS, 3.58 µM. Also, the GI50 with CCRF-CEM leukemia was 3.59 µM. Moreover, the TGI is 23.6 µM with UACC-62 melanoma; more than 100 µM in the assay with SNB-19 CNS; 4.31 µM in the assay on HCT-116 colon; 8.63 µM in the assay with NCI-H226 lung; 40.1 µM with OVCAR-8 ovarian; 14 µM with SF-268 CNS. Also, the TGI with CCRF-CEM leukemia is more than 100 µM.
